Measurements as given in article PMC2676897 (Bioorganic & medicinal chemistry letters, 2009).

Experiments:
MDA-MB231 cells = assay: Growth inhibition of ER-negative MDA-MB231 cells, MTS assay; settings: for growth inhibitory activity: ER-negative MDA-MB231 cells, 72 h, MTS; for toxicity to cells: MDA-MB231 cells, 25 μM
[1] = tested on: ATCC MCF7 cells (ERα expressing); assay: Inhibition of E2-induced proliferation, MTS assay, ATCC MCF7 expressing only ERα; format: cell-based, human; settings: 1 nM E2, 6 days

Row | GI50, inhibition of E2-induced proliferation [1] | Compound | growth inhibitory activity (MDA-MB231 cells) | toxicity to cells (MDA-MB231 cells)
1 | – | O=C(c1ccc(OCCN2CCCCC2)cc1)c1c(-c2ccc(O)cc2)sc2cc(O)ccc12 [RAL, Raloxifene, reference compound] | did not demonstrate significant growth inhibitory activity | toxicity
2 | did not demonstrate inhibition | CCCC[C@@H]1C[C@H]1[C@@H](NC(=O)c1ccccc1)c1ccc(-c2ccc(O)cc2)cc1F [Compound 11b] | did not demonstrate significant growth inhibitory activity | toxicity
3 | – | CCCC[C@@H]1C[C@H]1[C@@H](N)c1ccc(-c2ccc(O)cc2)cc1F.Cl [Compound 13] | did not demonstrate significant growth inhibitory activity | toxicity
